Here are results for two molecules from PMC7997396 (Cell host & microbe, 2020).

The target in the assay is mouse Trpa1 (Mus musculus, UniProt Q8BLA8). Briefly: Ca2+ influx assay in HEK-293T cells transfected with mouse TRPA1. It counts as cell-based.
Chain of mouse Trpa1 (Q8BLA8 whole entry): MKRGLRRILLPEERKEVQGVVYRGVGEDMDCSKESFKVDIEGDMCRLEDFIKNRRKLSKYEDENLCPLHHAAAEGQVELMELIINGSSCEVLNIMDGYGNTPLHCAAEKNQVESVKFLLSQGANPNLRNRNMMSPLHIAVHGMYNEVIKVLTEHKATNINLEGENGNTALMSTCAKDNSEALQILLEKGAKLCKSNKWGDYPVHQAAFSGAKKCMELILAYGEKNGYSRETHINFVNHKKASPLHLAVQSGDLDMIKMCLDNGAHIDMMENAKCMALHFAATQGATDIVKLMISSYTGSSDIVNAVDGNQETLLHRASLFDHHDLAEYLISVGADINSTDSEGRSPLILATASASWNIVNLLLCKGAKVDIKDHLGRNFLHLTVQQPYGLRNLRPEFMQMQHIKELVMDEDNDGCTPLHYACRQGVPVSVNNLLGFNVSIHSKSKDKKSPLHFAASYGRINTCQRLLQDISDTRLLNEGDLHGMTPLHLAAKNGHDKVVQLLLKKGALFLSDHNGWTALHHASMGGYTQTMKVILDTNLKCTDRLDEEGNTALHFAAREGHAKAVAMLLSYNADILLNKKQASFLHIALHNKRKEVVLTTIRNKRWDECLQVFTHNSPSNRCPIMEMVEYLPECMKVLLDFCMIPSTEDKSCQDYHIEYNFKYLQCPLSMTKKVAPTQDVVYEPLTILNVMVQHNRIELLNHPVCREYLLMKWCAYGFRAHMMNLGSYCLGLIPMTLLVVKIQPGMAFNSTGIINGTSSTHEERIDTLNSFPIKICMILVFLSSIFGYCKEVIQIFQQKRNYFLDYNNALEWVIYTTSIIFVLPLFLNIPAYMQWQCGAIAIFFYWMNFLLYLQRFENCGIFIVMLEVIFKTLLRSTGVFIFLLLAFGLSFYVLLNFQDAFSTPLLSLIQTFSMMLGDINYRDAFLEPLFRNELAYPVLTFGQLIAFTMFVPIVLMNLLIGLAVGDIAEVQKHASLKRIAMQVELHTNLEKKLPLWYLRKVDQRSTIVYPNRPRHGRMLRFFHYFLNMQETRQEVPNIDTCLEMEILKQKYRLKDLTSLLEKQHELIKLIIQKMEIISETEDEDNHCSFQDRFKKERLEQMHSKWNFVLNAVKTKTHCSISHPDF

Consider `O=Cc1c[nH]c2ccccc12` [IAld, Indole-3-carboxaldehyde], for which the “Ca2+ influx assay in HEK-293T cells transfected with mouse TRPA1” value was “Both indole and IAld also activated mouse Trpa1, but in a less potent manner”.
The value for `c1ccc2[nH]ccc2c1` [Indole] was “Both indole and IAld also activated mouse Trpa1, but in a less potent manner”.
